Measurements published in the CheMixHub viscosity set.
± gives the uncertainty stated by the source.

Test: xn = mol fraction of the nth substance listed

Cc1ccc(C)cc1 + CCCO
viscosity [mPa·s], 100 kPa
Conditions	298.15 K	308.15 K
x2 = 0.0643	0.6146 ± 0.074	0.5489 ± 0.066
x2 = 0.1254	0.631 ± 0.076	0.5619 ± 0.068
x2 = 0.2254	0.6713 ± 0.081	0.5956 ± 0.072
x2 = 0.3547	0.7426 ± 0.089	0.6389 ± 0.077
x2 = 0.4703	0.8348 ± 0.1	0.7071 ± 0.085
x2 = 0.5743	0.9545 ± 0.11	0.7925 ± 0.095
x2 = 0.6683	1.058 ± 0.13	0.9054 ± 0.11
x2 = 0.7538	1.253 ± 0.15	1.028 ± 0.12
x2 = 0.8318	1.449 ± 0.17	1.198 ± 0.14
x2 = 0.9033	1.662 ± 0.2	1.337 ± 0.16
x2 = 0.9691	1.814 ± 0.22	1.457 ± 0.18

O=C(O)CCC(=O)O + CCCO
101 kPa
Conditions	viscosity [mPa·s]
308.15 K, x1 = 0.0284	1.872 ± 0.05
313.15 K, x1 = 0.0284	1.657 ± 0.044
313.15 K, x1 = 0.03	1.657 ± 0.014
313.15 K, x1 = 0.037	1.72 ± 0.015
313.15 K, x1 = 0.043	1.777 ± 0.015
313.15 K, x1 = 0.0435	1.888 ± 0.05
313.15 K, x1 = 0.048	1.888 ± 0.016
318.15 K, x1 = 0.0284	1.492 ± 0.04
318.15 K, x1 = 0.0435	1.635 ± 0.044
323.15 K, x1 = 0.0284	1.326 ± 0.035
323.15 K, x1 = 0.0435	1.462 ± 0.039

O=C(O)c1ccccc1C(=O)O + CCCO
viscosity [mPa·s]
Conditions	308.15 K	313.15 K	318.15 K	323.15 K
101 kPa, x1 = 0.02	–	1.632 ± 0.013	–	–
101 kPa, x1 = 0.027	–	1.732 ± 0.015	–	–
101 kPa, x1 = 0.0369	–	1.887 ± 0.016	–	–
101.33 kPa, x1 = 0.02	1.78 ± 0.047	1.632 ± 0.043	1.457 ± 0.039	1.302 ± 0.035
101.33 kPa, x1 = 0.0369	2.133 ± 0.056	1.887 ± 0.05	1.672 ± 0.044	1.488 ± 0.04

O=Cc1ccccc1 + CCCO
Conditions	viscosity [mPa·s]
308.15 K, 101 kPa, x2 = 0.8022	1.215 ± 0.016

CCCCCCCCN + CCN(CC)CC
viscosity [mPa·s], 101.33 kPa
Conditions	x2 = 0.1056	x2 = 0.2038	x2 = 0.4151	x2 = 0.4978	x2 = 0.6055	x2 = 0.8063	x2 = 0.9007
303.15 K	1.021 ± 0.0087	0.9064 ± 0.008	0.7044 ± 0.0068	0.6396 ± 0.0064	0.5641 ± 0.006	0.4488 ± 0.0054	0.4031 ± 0.0052
313.15 K	0.8659 ± 0.0077	0.7719 ± 0.0072	0.6062 ± 0.0063	0.5533 ± 0.006	0.4916 ± 0.0057	0.3975 ± 0.0052	0.3611 ± 0.005
